± gives the standard deviation of the averaged measurements.
Experiments:
Assay in all cases: level (log10 ratio to DMSO vehicle control); higher = higher biomarker level / cell amount than vehicle control
[1] = compound: O=S(=O)(Cl)C(F)(F)C(F)(F)C(F)(F)C(F)(F)C(F)(F)C(F)(F)C(F)(F)C(F)(F)F [Perfluoro-1-octanesulfonyl chloride]; conditions: in DMSO
Protocol: (§1)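 BioMAP Diversity Plus panel of 12 human primary cell co-culture systems (3C, 4H, LPS, SAg, BT, BF4T, BE3C, CASM3C, HDF3CGF, KF3CT, MyoF, Mphg). Compounds were added 1 h before stimulation and left for 24 h (MyoF 48 h; BT 72 h for soluble read-outs or 6 d for IgG). Biomarkers were read by ELISA, cytotoxicity by SRB, PBMC viability and proliferation by Alamar Blue. Each well value was divided by the mean of 8 DMSO control wells on the same plate and log10 transformed; duplicate blinded samples were tested at 4 concentrations.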

Nonafluoropentanamide = compound: NC(=O)C(F)(F)C(F)(F)C(F)(F)C(F)(F)F [Nonafluoropentanamide]; conditions: in DMSO
Protocol: as §1

[2] = compound: O=C(O)C(F)(F)C(F)(F)C(F)(F)C(F)(F)C(F)(F)C(F)(F)C(F)(F)C(F)(F)C(F)(F)C(F)F [11-H-Perfluoroundecanoic acid]; conditions: in DMSO
Protocol: as §1

[3] = compound: NS(=O)(=O)C(F)(F)C(F)(F)C(F)(F)C(F)(F)C(F)(F)C(F)(F)F [Perfluorohexanesulfonamide]; conditions: in DMSO
Protocol: as §1

[4] = compound: O=S(=O)(F)C(F)(F)C(F)(F)C(F)(F)C(F)(F)C(F)(F)C(F)(F)C(F)(F)C(F)(F)F [Perfluorooctanesulfonyl fluoride]; conditions: in DMSO
Protocol: as §1

[5] = compound: NC(=O)C(F)(F)C(F)(F)C(F)(F)C(F)F; conditions: in DMSO
Protocol: as §1

Hexafluoroamylene glycol = compound: OCC(F)(F)C(F)(F)C(F)(F)CO [Hexafluoroamylene glycol]; conditions: in DMSO
Protocol: as §1

[6] = compound: O=S(=O)(O)C(F)(F)C(F)(F)C(F)(F)C(F)(F)C(F)(F)C(F)(F)C(F)(F)C(F)(F)C(F)(F)C(F)(F)F [Sodium perfluorodecanesulfonate]; conditions: in DMSO
Protocol: as §1

Octafluoroadipamide = compound: NC(=O)C(F)(F)C(F)(F)C(F)(F)C(F)(F)C(N)=O [Octafluoroadipamide]; conditions: in DMSO
Protocol: as §1

[7] = compound: C=CC(=O)OCC(F)(F)C(F)(F)C(F)(F)COC(=O)C=C [1H,1H,5H,5H-Perfluoro-1,5-pentanediol diacrylate]; conditions: 6700 nM; in DMSO
Protocol: as §1

[8] = compound: O=C(O)C=CC(F)(C(F)(F)F)C(F)(F)F [3-(Perfluoroisopropyl)-2-propenoic acid]; conditions: in DMSO
Protocol: as §1

[9] = compound: FC(F)(F)C(F)(F)C(F)(F)C(F)(F)C(F)(F)C(F)(F)C(F)(F)I [1-Iodopentadecafluoroheptane]; conditions: in DMSO
Protocol: as §1

[10] = compound: COC(=O)C(F)(F)C(F)(F)OC(F)(C(F)(F)F)C(F)(F)OC(F)=C(F)F [Methyl perfluoro(3-(1-ethenyloxypropan-2-yloxy)propanoate)]; conditions: in DMSO
Protocol: as §1

[11] = compound: C=C(C)C(=O)OCCC(F)(F)C(F)(F)C(F)(F)C(F)(F)C(F)(F)C(F)(F)F [6:2 Fluorotelomer methacrylate]; conditions: in DMSO
Protocol: as §1

[12] = compound: O=S(=O)(O)CCC(F)(F)C(F)(F)C(F)(F)C(F)(F)C(F)(F)C(F)(F)F [6:2 Fluorotelomer sulfonic acid]; conditions: in DMSO
Protocol: as §1

Heptafluorobutyl iodide = compound: FC(F)(F)C(F)(F)C(F)(F)CI [Heptafluorobutyl iodide]; conditions: in DMSO
Protocol: as §1

[13] = compound: FC(F)(F)C(F)(F)CNCC(F)(F)C(F)(F)F [Bis(1H,1H-perfluoropropyl)amine]; conditions: in DMSO
Protocol: as §1

[14] = compound: FC(F)(F)C(F)(F)C(F)(F)C(F)(F)C(F)(F)C(F)(F)CC1CO1 [3-(Perfluorohexyl)-1,2-epoxypropane]; conditions: in DMSO
Protocol: as §1

[15] = compound: FC(F)(F)C(F)(F)C(F)(F)CC1CO1 [1H,1H-Heptafluorobutyl epoxide]; conditions: in DMSO
Protocol: as §1

Q: Which results are given for 3C:CD54/ICAM-1?
A: level (log10) ([1]; 6700 nM): -0.027 ± 0.0099; level (log10) ([1]; 20000 nM): -0.0215 ± 0.023; level (log10) ([1]; 60000 nM): -0.0045 ± 0.0078; level (log10) (Nonafluoropentanamide; 6700 nM): -0.0155 ± 0.005; level (log10) (Nonafluoropentanamide; 20000 nM): -0.0025 ± 0.0092; level (log10) (Nonafluoropentanamide; 60000 nM): 0.005 ± 0.021; level (log10) ([2]; 6700 nM): -0.012 ± 0.023; level (log10) ([2]; 20000 nM): -0.019 ± 0.0014; level (log10) ([3]; 6700 nM): 0.013 ± 0.011; level (log10) ([3]; 20000 nM): 0.002 ± 0.0085; level (log10) ([3]; 60000 nM): 0.0065 ± 0.0078; level (log10) ([4]; 6700 nM): -0.0025 ± 0.011; level (log10) ([4]; 20000 nM): -0.007 ± 0.0042; level (log10) ([4]; 60000 nM): 0.005 ± 0.0028; level (log10) ([5]; 6700 nM): -0.0095 ± 0.013; level (log10) ([5]; 20000 nM): -0.0115 ± 0.019; level (log10) ([5]; 60000 nM): -0.0095 ± 0.025; level (log10) (Hexafluoroamylene glycol; 6700 nM): -0.01 ± 0.0085; level (log10) (Hexafluoroamylene glycol; 20000 nM): -0.0325 ± 0.005; level (log10) (Hexafluoroamylene glycol; 60000 nM): -0.016 ± 0.023; level (log10) ([6]; 1500 nM): 0.0115 ± 0.005; level (log10) ([6]; 4400 nM): -0.0015 ± 0.00071; level (log10) ([6]; 13000 nM): 0.0115 ± 0.021; level (log10) ([6]; 40000 nM): 0.0145 ± 0.0078; level (log10) (Octafluoroadipamide; 6700 nM): -0.0125 ± 0.0021; level (log10) (Octafluoroadipamide; 20000 nM): -0.019 ± 0.0071; level (log10) (Octafluoroadipamide; 60000 nM): -0.006 ± 0.0085; level (log10) [7]: -0.03 ± 0.014; level (log10) ([8]; 6700 nM): -0.013 ± 0.033; level (log10) ([8]; 20000 nM): -0.0185 ± 0.025; level (log10) ([8]; 60000 nM): -0.003 ± 0.013; level (log10) ([9]; 6700 nM): -0.0115 ± 0.00071; level (log10) ([9]; 20000 nM): 0.014 ± 0.016; level (log10) ([10]; 6700 nM): -0.02 ± 0.0042; level (log10) ([10]; 20000 nM): -0.0045 ± 0.016; level (log10) ([11]; 6700 nM): -0.003 ± 0.0042; level (log10) ([11]; 20000 nM): -0.014 ± 0.011; level (log10) ([11]; 60000 nM): 0.0025 ± 0.015; level (log10) ([12]; 6700 nM): -0.012 ± 0.021; level (log10) ([12]; 20000 nM): -0.006 ± 0.021; level (log10) ([12]; 60000 nM): -0.004 ± 0.011; level (log10) (Heptafluorobutyl iodide; 6700 nM): -0.0075 ± 0.015; level (log10) (Heptafluorobutyl iodide; 20000 nM): -0.0035 ± 0.0092; level (log10) (Heptafluorobutyl iodide; 60000 nM): -0.0055 ± 0.005; level (log10) ([13]; 6700 nM): 0 ± 0.016; level (log10) ([13]; 20000 nM): 0.001 ± 0.0085; level (log10) ([13]; 60000 nM): 0.006 ± 0.0014; level (log10) ([14]; 6700 nM): -0.0115 ± 0.00071; level (log10) ([14]; 20000 nM): -0.0275 ± 0.015; level (log10) ([14]; 60000 nM): -0.015 ± 0.011; level (log10) ([15]; 6700 nM): -0.02 ± 0.0071; level (log10) ([15]; 20000 nM): -0.0135 ± 0.005; level (log10) ([15]; 60000 nM): -0.003 ± 0.0057

Q: Which results are given for lMphg:CD69?
A: level (log10) ([1]; 6700 nM): -0.054 ± 0.0099; level (log10) ([1]; 20000 nM): -0.0855 ± 0.033; level (log10) ([1]; 60000 nM): -0.111 ± 0.09; level (log10) (Nonafluoropentanamide; 6700 nM): -0.005; level (log10) (Nonafluoropentanamide; 20000 nM): -0.021 ± 0.016; level (log10) (Nonafluoropentanamide; 60000 nM): -0.028 ± 0.018; level (log10) ([2]; 6700 nM): -0.054 ± 0.0085; level (log10) ([2]; 20000 nM): -0.039 ± 0.013; level (log10) ([3]; 6700 nM): -0.02 ± 0.023; level (log10) ([3]; 20000 nM): -0.066 ± 0.02; level (log10) ([3]; 60000 nM): -0.169 ± 0.0085; level (log10) ([4]; 6700 nM): -0.0075 ± 0.036; level (log10) ([4]; 20000 nM): -0.0125 ± 0.029; level (log10) ([4]; 60000 nM): -0.0175 ± 0.032; level (log10) ([5]; 6700 nM): 0.0265 ± 0.018; level (log10) ([5]; 20000 nM): -0.015 ± 0.0071; level (log10) ([5]; 60000 nM): -0.0115 ± 0.0078; level (log10) (Hexafluoroamylene glycol; 6700 nM): -0.046 ± 0.027; level (log10) (Hexafluoroamylene glycol; 20000 nM): -0.0425 ± 0.025; level (log10) (Hexafluoroamylene glycol; 60000 nM): -0.027 ± 0.0071; level (log10) ([6]; 1500 nM): -0.001 ± 0.014; level (log10) ([6]; 4400 nM): -0.022 ± 0.052; level (log10) ([6]; 13000 nM): -0.0095 ± 0.032; level (log10) ([6]; 40000 nM): -0.084 ± 0.011; level (log10) (Octafluoroadipamide; 6700 nM): -0.0425 ± 0.052; level (log10) (Octafluoroadipamide; 20000 nM): -0.027 ± 0.042; level (log10) (Octafluoroadipamide; 60000 nM): 0.0275 ± 0.063; level (log10) [7]: -0.0015 ± 0.0078; level (log10) ([8]; 6700 nM): -0.0265 ± 0.022; level (log10) ([8]; 20000 nM): -0.021 ± 0.035; level (log10) ([8]; 60000 nM): 0.0235 ± 0.049; level (log10) ([9]; 6700 nM): -0.0455 ± 0.043; level (log10) ([9]; 20000 nM): -0.079 ± 0.062; level (log10) ([10]; 6700 nM): -0.067 ± 0.047; level (log10) ([10]; 20000 nM): -0.0985 ± 0.07; level (log10) ([11]; 6700 nM): -0.0125 ± 0.049; level (log10) ([11]; 20000 nM): -0.046 ± 0.0028; level (log10) ([11]; 60000 nM): -0.0915 ± 0.019; level (log10) ([12]; 6700 nM): -0.034 ± 0.04; level (log10) ([12]; 20000 nM): -0.065 ± 0.054; level (log10) ([12]; 60000 nM): -0.073 ± 0.025; level (log10) (Heptafluorobutyl iodide; 6700 nM): -0.048 ± 0.03; level (log10) (Heptafluorobutyl iodide; 20000 nM): -0.033; level (log10) (Heptafluorobutyl iodide; 60000 nM): -0.026 ± 0.025; level (log10) ([13]; 6700 nM): -0.017 ± 0.028; level (log10) ([13]; 20000 nM): -0.012 ± 0.03; level (log10) ([13]; 60000 nM): 0.0045 ± 0.14; level (log10) ([14]; 6700 nM): 0.004 ± 0.025; level (log10) ([14]; 20000 nM): -0.007 ± 0.021; level (log10) ([14]; 60000 nM): 0.0235 ± 0.049; level (log10) ([15]; 6700 nM): -0.0285 ± 0.0064; level (log10) ([15]; 20000 nM): 0.005 ± 0.041; level (log10) ([15]; 60000 nM): 0.045 ± 0.081

From the supplement of paper PMC10331698
